Legend:
Type in all cases: in vivo
[1] = system: ladysthumb smartweed (Polygonum persicaria); test: Test C; set-up: key: 0 was no effect; 100 was complete control; conditions: PREEMERGENCE
[2] = system: common ragweed (Ambrosia elatior); test: Test C; set-up: key: 0 was no effect; 100 was complete control; conditions: PREEMERGENCE
[3] = system: fall panicum (Panicum dichotomiflorum); test: Test C; set-up: key: 0 was no effect; 100 was complete control; conditions: PREEMERGENCE
[4] = system: redroot pigweed (Amaranthus retroflexus); test: Test C; set-up: key: 0 was no effect; 100 was complete control; conditions: PREEMERGENCE
[5] = system: johnsongrass (Sorghum halepense); test: Test C; set-up: key: 0 was no effect; 100 was complete control; conditions: PREEMERGENCE
[6] = system: barnyardgrass (Echinochloa crus-galli); test: Test C; set-up: key: 0 was no effect; 100 was complete control; conditions: PREEMERGENCE
[7] = system: velvetleaf (Abutilon theophrasti); test: Test C; set-up: key: 0 was no effect; 100 was complete control; conditions: PREEMERGENCE
[8] = system: winter barley (Hordeum vulgare); test: Test D; set-up: key: 0 is no effect; conditions: PREEMERGENCE
[9] = system: common ragweed (Ambrosia elatior); test: Test E pre-/postemergence/post directed; set-up: key: 0 is no effect; 100 is complete control; conditions: PREEMERGENCE
Text: (§1) Seeds, tubers, or plant parts of alexandergrass (Brachiaria plantaginea), annual bluegrass (Poa annua), arrowleaf sida (Sida rhombifolia), barnyardgrass (Echinochloa crus-galli), bermudagrass (Cynodon dactylon), citrus (Citrus sinensis), common chickweed (Stellaria media), common purslane (Portulaca oleracea), common ragweed (Ambrosia elatior), common groundsel (Senecio vulgaris), dallisgrass (Paspalum dilatatum), goosegrass (Eleusine indica), green foxtail (Setaria viridis), guineagrass (Panicum maximum), itchgrass (Rottboellia exaltata), johnson grass (Sorghum halepense), kochia (Kochia scoparia), large crabgrass (Digitaria sanguinalis), leafy spurge (Euphorbia esula), pitted morningglory (Ipomoea lacunosa), purple nutsedge (Cyperus rotundus), quackgrass (Agropyron repens), Russian thistle (Salsola kali), sandbur (Cenchrus echinatus), sourgrass (Trichachne insularis), Spanishneedles (Bidens bipinnata), sugarcane (Saccharum officinarum), surinam grass (Brachiaria decumbens) and tall mallow (Malva sylvestris) were planted into greenhouse pots of flats containing greenhouse planting medium. Plant species were grown grown in separate pots or individual compartments. Preemergence applications were made within one day of planting the seed or plant part. Postemergence applications were applied when the plants were in the two to four leaf stage (three to twenty cm).
(§2) Test chemicals were formulated in a non-phytotoxic solvent mixture which included a surfactant and applied preemergence to the soil surface, postemergence to the plants or as a post directed spray to plants and soil at the base of the target species. Untreated control plants and treated plants were placed in the greenhouse and visually evaluated for injury 13 to 21 days after herbicide application. Plant response ratings, summarized in Table E, are based on a 0 to 100 scale where 0 is no injury and 100 is complete control. A dash (−) response means no test result.

[10] = system: sourgrass (Trichachne insularis); test: Test E pre-/postemergence/post directed; set-up: key: 0 is no effect; 100 is complete control
Text: as §1, §2

[11] = system: goosegrass (Eleusine indica); test: Test E pre-/postemergence/post directed; set-up: key: 0 is no effect; 100 is complete control
Text: as §1, §2

[12] = system: dallisgrass (Paspalum dilatatum); test: Test E pre-/postemergence/post directed; set-up: key: 0 is no effect; 100 is complete control
Text: as §1, §2

[13] = system: tall mallow (Malva sylvestris); test: Test E pre-/postemergence/post directed; set-up: key: 0 is no effect; 100 is complete control; conditions: PREEMERGENCE
Text: as §1, §2

[14] = system: common purslane (Portulaca oleracea); test: Test E pre-/postemergence/post directed; set-up: key: 0 is no effect; 100 is complete control
Text: as §1, §2

[15] = system: guineagrass (Panicum maximum); test: Test E pre-/postemergence/post directed; set-up: key: 0 is no effect; 100 is complete control
Text: as §1, §2

[16] = system: large crabgrass (Digitaria sanguinalis); test: Test E pre-/postemergence/post directed; set-up: key: 0 is no effect; 100 is complete control; conditions: PREEMERGENCE
Text: as §1, §2

[17] = system: common groundsel (Senecio vulgaris); test: Test E pre-/postemergence/post directed; set-up: key: 0 is no effect; 100 is complete control; conditions: PREEMERGENCE
Text: as §1, §2

Question: Which “Plant response rating, Ladysthumb” value ([1]; Rate 35 g/ha) does the source give for `Cc1cnc(-c2ccc(C(F)(F)F)cc2)nc1C(Cl)c1cccc(C(F)(F)F)c1` (racemic) [Compound 21] here?
Answer: The value was 0.

Question: What about the “Plant response rating, Ladysthumb” value ([1]; Rate 140 g/ha) of the same molecule?
Answer: The value was 5.

Question: And the “Plant response rating, Common ragweed” value ([2]; Rate 35 g/ha)?
Answer: The value was 0.

Question: What about the “Plant response rating, Common ragweed” value ([2]; Rate 70 g/ha) of the same molecule?
Answer: The value was 0.

Question: What about the “Plant response rating, Common ragweed” value ([2]; Rate 140 g/ha) of the same molecule?
Answer: The value was 20.

Question: And the “Plant response rating, Fall panicum” value ([3]; Rate 35 g/ha)?
Answer: Its value is 10.

Question: What about the “Plant response rating, Fall panicum” value ([3]; Rate 70 g/ha) of the same molecule?
Answer: The value was 0.

Question: What about the “Plant response rating, Fall panicum” value ([3]; Rate 140 g/ha) of the same molecule?
Answer: Its value is 90.

Question: What about the “Plant response rating, Redroot pigweed” value ([4]; Rate 70 g/ha) of the same molecule?
Answer: Its value is 80.

Question: And the “Plant response rating, Redroot pigweed” value ([4]; Rate 140 g/ha)?
Answer: Its value is 100.

Question: And the “Plant response rating, Johnsongrass” value ([5]; Rate 35 g/ha)?
Answer: The value was 0.

Question: What about the “Plant response rating, Johnsongrass” value ([5]; Rate 70 g/ha) of the same molecule?
Answer: The value was 0.

Question: What about the “Plant response rating, Johnsongrass” value ([5]; Rate 140 g/ha) of the same molecule?
Answer: The value was 5.

Question: What about the “Plant response rating, Barnyardgrass” value ([6]; Rate 35 g/ha) of the same molecule?
Answer: Its value is 0.

Question: And the “Plant response rating, Barnyardgrass” value ([6]; Rate 70 g/ha)?
Answer: Its value is 0.

Question: What about the “Plant response rating, Barnyardgrass” value ([6]; Rate 140 g/ha) of the same molecule?
Answer: The value was 5.

Question: What about the “Plant response rating, Velvetleaf” value ([7]; Rate 35 g/ha) of the same molecule?
Answer: The value was 0.

Question: What about the “Plant response rating, Velvetleaf” value ([7]; Rate 70 g/ha) of the same molecule?
Answer: Its value is 50.

Question: What about the “Plant response rating, Velvetleaf” value ([7]; Rate 140 g/ha) of the same molecule?
Answer: Its value is 50.

Question: How did the “Plant response rating, Barley (winter)” value ([8]; Rate 62 g/ha) turn out when `CCc1cnc(-c2ccc(C(F)(F)F)cc2)nc1Cc1cccc(C(F)(F)F)c1` [Compound 22] was run?
Answer: The value was 0.

Question: And the “Plant response rating, Barley (winter)” value ([8]; Rate 125 g/ha)?
Answer: The value was 20.

Question: And the “Plant response rating, Barley (winter)” value ([8]; Rate 250 g/ha)?
Answer: The value was 10.

Question: Which results are given for `COc1cnc(-c2ccc(C(F)(F)F)cc2)nc1Cc1cccc(C(F)(F)F)c1` [Compound 23]?
Answer: Plant response rating, Ladysthumb ([1]; Rate 35 g/ha): 5; Plant response rating, Ladysthumb ([1]; Rate 70 g/ha): 80; Plant response rating, Ladysthumb ([1]; Rate 140 g/ha): 80; Plant response rating, Common ragweed ([2]; Rate 35 g/ha): 10; Plant response rating, Common ragweed ([2]; Rate 70 g/ha): 30; Plant response rating, Common ragweed ([2]; Rate 140 g/ha): 90; Plant response rating, Fall panicum ([3]; Rate 35 g/ha): 55; Plant response rating, Fall panicum ([3]; Rate 70 g/ha): 100; Plant response rating, Fall panicum ([3]; Rate 140 g/ha): 100; Plant response rating, Redroot pigweed ([4]; Rate 35 g/ha): 100; Plant response rating, Redroot pigweed ([4]; Rate 70 g/ha): 100; Plant response rating, Redroot pigweed ([4]; Rate 140 g/ha): 100; Plant response rating, Com. ragweed ([9]; Rate 125 g/ha): 100; Plant response rating, Com. ragweed ([9]; Rate 250 g/ha): 100; Plant response rating, Sourgrass ([10]; POSTEMERGENCE, Rate 250 g/ha): 30; Plant response rating, Sourgrass ([10]; PREEMERGENCE, Rate 32 g/ha): 98; Plant response rating, Sourgrass ([10]; PREEMERGENCE, Rate 64 g/ha): 98; Plant response rating, Sourgrass ([10]; PREEMERGENCE, Rate 125 g/ha): 100; Plant response rating, Sourgrass ([10]; PREEMERGENCE, Rate 250 g/ha): 100; Plant response rating, Goosegrass ([11]; POSTEMERGENCE, Rate 250 g/ha): 75; Plant response rating, Goosegrass ([11]; PREEMERGENCE, Rate 32 g/ha): 98; Plant response rating, Goosegrass ([11]; PREEMERGENCE, Rate 64 g/ha): 98; Plant response rating, Goosegrass ([11]; PREEMERGENCE, Rate 125 g/ha): 98; Plant response rating, Goosegrass ([11]; PREEMERGENCE, Rate 250 g/ha): 100; Plant response rating, Dallisgrass ([12]; POSTEMERGENCE, Rate 250 g/ha): 40; Plant response rating, Dallisgrass ([12]; PREEMERGENCE, Rate 32 g/ha): 80; Plant response rating, Dallisgrass ([12]; PREEMERGENCE, Rate 64 g/ha): 85; Plant response rating, Dallisgrass ([12]; PREEMERGENCE, Rate 125 g/ha): 90; Plant response rating, Dallisgrass ([12]; PREEMERGENCE, Rate 250 g/ha): 100; Plant response rating, Tall Mallow ([13]; Rate 32 g/ha): 80; Plant response rating, Tall Mallow ([13]; Rate 64 g/ha): 85; Plant response rating, Tall Mallow ([13]; Rate 125 g/ha): 85; Plant response rating, Tall Mallow ([13]; Rate 250 g/ha): 90; Plant response rating, Com. purslane ([14]; POSTEMERGENCE, Rate 250 g/ha): 50; Plant response rating, Com. purslane ([14]; PREEMERGENCE, Rate 32 g/ha): 100; Plant response rating, Com. purslane ([14]; PREEMERGENCE, Rate 64 g/ha): 100; Plant response rating, Com. purslane ([14]; PREEMERGENCE, Rate 125 g/ha): 100; Plant response rating, Com. purslane ([14]; PREEMERGENCE, Rate 250 g/ha): 100; Plant response rating, Guineagrass ([15]; POSTEMERGENCE, Rate 250 g/ha): 75; Plant response rating, Guineagrass ([15]; PREEMERGENCE, Rate 32 g/ha): 80; Plant response rating, Guineagrass ([15]; PREEMERGENCE, Rate 64 g/ha): 98; Plant response rating, Guineagrass ([15]; PREEMERGENCE, Rate 125 g/ha): 98; Plant response rating, Guineagrass ([15]; PREEMERGENCE, Rate 250 g/ha): 100; Plant response rating, Large crabgrass ([16]; Rate 125 g/ha): 100; Plant response rating, Large crabgrass ([16]; Rate 250 g/ha): 100; Plant response rating, Com. groundsel ([17]; Rate 32 g/ha): 100; Plant response rating, Com. groundsel ([17]; Rate 64 g/ha): 100; Plant response rating, Com. groundsel ([17]; Rate 125 g/ha): 100; Plant response rating, Com. groundsel ([17]; Rate 250 g/ha): 100; Plant response rating, Johnsongrass ([5]; Rate 35 g/ha): 5; Plant response rating, Johnsongrass ([5]; Rate 70 g/ha): 20; Plant response rating, Johnsongrass ([5]; Rate 140 g/ha): 80; Plant response rating, Barnyardgrass ([6]; Rate 35 g/ha): 0; Plant response rating, Barnyardgrass ([6]; Rate 70 g/ha): 5; Plant response rating, Barnyardgrass ([6]; Rate 140 g/ha): 10; Plant response rating, Velvetleaf ([7]; Rate 35 g/ha): 50; Plant response rating, Velvetleaf ([7]; Rate 140 g/ha): 50

— US6525001B1, “Substituted pyrimidine and pyridine herbicides” (Mid-American Commercialization Corporation, priority 1997, dated 2003)
